Read-outs that look alike come from different tables or passages of the source.

As usually defined, the Papp A→B is how fast a substance crosses the layer from the apical side. By Papp B→A is commonly meant the apparent permeability from the basolateral to the apical side of a cell layer.

One data set concerns P-gp. The data set can be described thus: Bidirectional transmembrane transport and P-gp efflux in Caco-2 monolayer cell model. It is filed as in vitro ADME. Conditions: human, Caco-2, pH 7.4; Concentration 10, Inhibitor − (without P-gp inhibitor GF120918); read-out: Efflux Ratio Papp (B→A)/Papp (A→B). The method, then:
(§1) The Caco-2 cell transport experiment was performed using compound 77 of the present invention as a representative example.
(§2) Main procedure: Caco-2 cells (ATCC, HTB-37) were cultured in high-glucose DMEM culture medium (Hyclone) containing 10% fetal calf serum (GIBCO) and penicillin-streptomycin (100 units/mL each) (Sigma). Cells were cultured at 37° C. in an incubator containing 5% CO2. In the transport experiment, Caco-2 cells were inoculated on a filter of a 12-well Transwell plate at a density of 2×10^5 cells/well (Coming Costar, catalog #3401, 1.12 cm^2, 0.4 um of pore size). After inoculation, the Caco-2 cells would form intact cell monolayers after 21 days, including P-gp efflux transporter expression and transepithelial cell resistance (TEER) formation. During the period, the culture medium was replaced once every other day. The volume of culture medium at the transwell membrane Apical Side (A) and Basolateral Side (B) were 0.5 mL and 1.5 mL, respectively. Before the transport experiment (day 21), the preheated HBSS buffer (137 mM NaCl, 4.17 mM NaHCO3, 0.34 mM Na2HPO4, 5.37 mM KCl, 0.44 mM KH2PO4, 1.26 mM CaCl2, 0.49 mM MgCl2, 0.41 mM MgSO4, 5.55 Mm D-Glucose, 10 mM HEPES, pH 7.4) was used firstly to wash Caco-2 cell monolayers for three times, and placed to at 37° C. for incubation for 30 minutes, then TEER values were determined using a cell resistometer (Millicell-ERS2) to confirm the integrity and compactness of the cell monolayers. When the HBSS buffer solution on the transmembrane A-side or B-side was replaced with the test compound, the transport experiment was started.
(§3) Finally, after incubation at 37° C. for 2 hours, the transport experiment was terminated and 50 uL of sample solution was taken from both sides of the Transwell filter membrane separately and added to 100 μL of acetonitrile comprising internal standard compound and mixed well, then centrifuged at 13000 rpm, 4° C. for 10 min, and finally 10 μL (or a specific volume) of supernatant was used for LC-MS/MS sample analysis.
(§4) For each compound, transport experiments in the A-B and B-A directions had three replicates, i.e. n=3.
(§5) LC-MS/MS Sample Analysis: The high performance liquid chromatography (HPLC) system used in this research consisted of two pumps (Shimadzu LC-20AD) and an autosampler (Shimadzu SIL-20AC). The HPLC system was connected in series with an API 4000 triple quadrupole mass spectrometer (Applied Biosystems). The API 4000 triple quadrupole mass spectrometer was equipped with an electrospray ionization (ESI) source. Ultrapurified nitrogen was used as curtain gas, GAS1, GAS2, and collision gas, at flow rates of 20 L/h, 55 L/h, 65 L/h, and 6 L/hr, respectively. The atomization temperature of the ion source was set to 500° C. Data was collected using the software Analyst 1.5.
(§6) Data analysis: The apparent permeability coefficient (Papp) can be calculated by the rate at which a compound permeates the monolayer of Caco-2 cells. Its value is related to the absorption of the compound in vivo. After concentrations at A side and B side were determined by LC-MS/MS, the Papp value in the A-B or B-A direction was calculated according to the following formula: Papp(A→B) or Papp(B→A)=(dQ/dt)/(A*C0)=(C2h*V)/(t*π2*C0)
(§7) In the above formula, dQ/dt is the permeation rate, i.e. the amount of compound that permeated in the dt time, C0 is the initial concentration of drug on the administration side, and A is the surface area of the cell monolayer, i.e. the membrane area.
(§8) After obtaining the Papp (A→B) and Papp (B→A) values of the compound, the Efflux Ratio (ER) of the compound could be calculated by the following formula: Efflux Ratio(ER)=Papp(B−A)/Papp(A−B).
(§9) When the ratio of efflux was >2, the compound could be considered as the substrate of the efflux transporter.
(In general: Caco-2 cells form a polarised layer with tight junctions and transporters.)

Test in data set [1]: as above
Type of data set: in vitro ADME. Conditions: human. Here is the method:
as §1, §2, §3, §4, §5, §6, §7, §8, §9

Consider `COCCOc1ccc2c(c1)ncn2-c1ccc(NC(=O)Nc2cc(C(C)(C)C)n[nH]2)cc1` [Compound 77, 1-(5-tert-butyl-2H-pyrazol-3-yl)-3-{4-[5-(2-methoxyl-ethoxyl)-benzimidazol-1-yl]-phenyl}-urea], for which the efflux ratio at 2 h in the data set on P-gp is 5.8. The Papp A→B at 2 h in data set [1] (Caco-2, pH 7.4, Caco-2 monolayer cell model, transmembrane permeability, read-out: Papp(A→B) value (conclusions under the table)) is 10 to 100 nm/s; in data set [1] (Caco-2, pH 7.4, Concentration 10, Inhibitor − (without P-gp inhibitor GF120918), read-out: Papp (A→B)), 22.4 nm/s. The same molecule showed a Papp B→A at 2 h in data set [1] (Caco-2, pH 7.4, Concentration 10, Inhibitor − (without P-gp inhibitor GF120918)) of 131 nm/s.

For the origin of these results see patent US10647680B2, “Urea compound, preparation method therefor and medical use thereof” (Ancureall Pharmaceutical (Shanghai) Co., Ltd., priority 2016, dated 2020).
